Measurements taken from patent publication US20250280827A1, “An antifungal composition comprising natamycin and at least one insecticide” (priority 2021, published 2025).
Read-outs that look alike come from different tables or passages of the source.

Key:
Colletotrichum spp. = assay: Antifungal effect against Colletotrichum infection on wounded skin of pepper fruits (Colby synergy); assay type: in vivo; details: 5 days after inoculation
Excerpt: wherein X and Y are the observed antifungal activities (in %) of the individual active ingredients x and y, respectively. If the observed antifungal activity (O in %) of the combination exceeds the expected antifungal activity (E in %) of the combination and the synergy factor O/E is thus >1.0, the combined application of the active ingredients leads to a synergistic antifungal effect. […]
For the treatment, 5 wounds per pepper side were done as previously described. In addition, one wound was done as negative control. Depending on the number of sides of the pepper, 3 to 4 treatments were done per paprika. Per wound 10 μl of treatment was placed on the wound. The treatments were let to dry in a down flow cabinet for about 30 minutes. After drying 5 μl spore suspension at a concentration of 10^7 spores per ml were placed on the wounds. The fungus was isolated from Colletotrichum-infected plant material and identified using techniques known to the person skilled in the art. The pepper were placed as described previously in a transparent container, with the difference that the containers were then placed in a transparent plastic zipper bag. The bags with peppers were placed at room temperature and in the dark for two days. After that the size of the lesions were measured. Assessment of the infection area was 4 days after inoculation. Experiment was performed in 5-fold.
(§1) The fungus was isolated from Colletotrichum-infected plant material and identified using techniques known to the person skilled in the art. Assessment of the infection area was performed 5 days after inoculation. Experiment was performed in 5-fold.
as §1, with “The active ingredient imidacloprid was formulated as described in Table 2. Imidacloprid belonging to IRAC Group 4. The” for “The”
The fungus was isolated from Colletotrichum-infected plant material and identified using techniques known to the person skilled in the art. Assessment of the efficacy was 5 days after inoculation. Experiment was performed in 5-fold.
The fungus was isolated from Colletotrichum-infected plant material and identified using techniques known to the person skilled in the art. Assessment of the infection area was performed 6 days after inoculation. Experiment was performed in 5-fold.
The fungus was isolated from Colletotrichum-infected plant material and identified using techniques known to the person skilled in the art. Assessment of the infection area was performed 4 days after inoculation. Experiment was performed in 5-fold.

Botrytis cinerea = assay: Antifungal effect against Botrytis cinerea infection on wounded peel of banana fruits (Colby synergy); assay type: in vivo
Excerpt: (§2) wherein X and Y are the observed antifungal activities (in %) of the individual active ingredients x and y, respectively. If the observed antifungal activity (O in %) of the combination exceeds the expected antifungal activity (E in %) of the combination and the synergy factor O/E is thus >1.0, the combined application of the active ingredients leads to a synergistic antifungal effect.
(§3) Application: The broad bean pods were washed under tap water, and were subsequently surface sterilized by placing them in a 0.1% sodium hypochlorite solution for 5 minutes. The pods were then rinsed with tap water and dried. Transparent plastic containers were prepared by placing a piece of absorbing paper in the container and adding 25 ml of water, one container per treatment was used. The pods were cut in two, and two halve pods were incubated per box. The skin of broad bean pods was damaged with a needle, ø 2 mm and to a depth of about 3 mm into the fruit, with—depending on the size of the pod—2 to 4 wounds per half pod. In total, 6 wounds were incubated per treatment, of which 1 was used as a control. A volume of 20 microliter of a natamycin/insecticide composition, as presented herein above, was applied by pipette to each wound. The treatments were then left to air-dry. Once dried, a mycelium plug of Sclerotinia sclerotiorum was placed upside down on each wound, so that the mycelium was in direct contact with the wound. Per treatment 5 wounds were inoculated with the fungus, while the 6th and last wound was used as negative non-inoculated control. After inoculation, the containers were directly closed with a transparent plastic lid.
The infection area was measured 5 days after inoculation.
A few changes were made for the banana experiments: 5 wounds per banana were made, on each wound 40 microliter of treatments was pipetted. The treatments were then left to air-dry. Once dried, 2 microliter of a freshly prepared inoculum was pipetted on four of the wounds. The inoculum consists of […] potato dextrose broth (PDB) medium containing Botrytis cinerea spores at a concentration of 10^6 spores per ml. The fifth wound was used as negative non-inoculated control. Experiment was performed in 4-fold.
Assessment of the infection area was performed 3 days after inoculation. Experiment was performed in 4-fold.
Imidacloprid was formulated as described in Table 2. Assessment of the efficacy was 5 days after inoculation. Experiment was performed in 4-fold.

Fusarium culmorum = assay: Antifungal effect against Fusarium culmorum on PDA petri dishes (fungal growth area, Colby synergy); assay type: cell-based; details: 6 days after inoculation, Table 6
Excerpt: (§4) The Colby equation (Colby, 1967. Weeds 15:20-22) calculates the expected antifungal activity (E in %) of a combination comprising more than one active ingredients:
as §2
(§5) Agar medium was prepared by mixing in a 100 ml Duran bottle 3.9 g of potato dextrose agar (PDA) from Carl-Roth (Carl-Roth GmbH+Co. KG, Karlsruhe, Germany) with 100 ml deionized water and autoclaving the Duran bottle at 120° C. for 15 minutes. After autoclaving, the solution was cooled by putting it in a 48° C. oven for about two hours. Afterward the semi-liquid PDA solution was carefully mixed with natamycin and/or insecticide dosages as specified in Table 5 showing the interaction results on petri dishes. The medium in the Duran bottle was divided over 5 petri dishes (90×15 mm), 20 ml per petri dish by using 25 ml serological pipets (ROTILABO®; Carl-Roth). Each natamycin and/or insecticide treatment was performed in fivefold.
(§6) Fungal spore suspensions were prepared by drenching a fully grown petri dish with sterile water. The fungus was scraped off and filtered through a Miracloth (pore size: 22-25 μm) (Merck KGaA, Darmstadt, Germany; catalogue number: 475855). The number of spores were counted with a hemocytometer and fungal suspension was adjusted to 10^6 spores per ml. Afterward, 5 μl of prepared spore suspension was pipetted on the center of the agar plate. The plates were incubated at 25° C. Measurement of the fungal growth was done using callipers at different time points. Assessment of the infection area was 6 days after inoculation.
(§7) The insecticide levels and the period after which the assessments were made are presented as specified for the different insecticides are presented in Table 5 below. Synergistic calculation was done using the Colby equation. Experiment was performed in 5-fold.
The experiments were performed as described in Example 3. Assessment of the infection area was 6 days after inoculation. Experiment was performed in 5-fold.
The experiments were performed as described in Example 3. The product KARATE ZEON® of company Syngenta containing the active ingredient lambda-cyhalothrin belonging to IRAC Group 3 was tested. Assessment of the infection area was 3 days after inoculation. Experiment was performed in 5-fold.

Fusarium graminerum = assay type: cell-based; details: 6 days after inoculation, Table 5
Excerpt: as §4, §2, §5, §6, §7
The experiments were performed as described in Example 3. The product KARATE ZEON® of company Syngenta containing the active ingredient lambda-cyhalothrin belonging to IRAC Group 3 was tested. Assessment of the infection area was 6 days after inoculation. Experiment was performed in 5-fold.

Sclerotinia sclerotiorum = assay: Antifungal effect against Sclerotinia sclerotiorum infection on wounded skin of broad bean pods (rot area, Colby synergy); assay type: in vivo; details: 23 h after inoculation, Table 4
Excerpt: as §4, §2
• 1) Control (without natamycin and lambda-cyhalothrin) • 2) Natamycin at a level of 15 ppm • 3) Lambda-cyhalothrin (in the product KARATE ZEON® of Syngenta) at a levels of 0.15 ppm, 0.6 ppm, 3 ppm and 15 ppm • 4) Natamycin at a level of 15 ppm combined with lambda-cyhalothrin at levels of 0.15 ppm, 0.6 ppm, 3 ppm or 15 ppm.
Used pathogen: Sclerotinia sclerotiorum.
as §3
All pods were kept at room temperature (20° C.). Wounds of the pods were checked after 30 h of incubation.
Replicates: All treatments for the broad bean pod experiment were performed on two individual pod halves resulting in 5 wounds per treatment, while a sixth wound served as control.
The experiments were performed as described in Example 1.
The experiments were performed as described in Example 1. Assessment of the infection area was 23 h after inoculation. Experiment was performed in 5-fold.
The experiments were performed as described in Example 1. Thiamethoxam belongs to IRAC Group 4. Assessment of the infection area was 31 hours after inoculation. Experiment was performed in 5-fold.
The experiments were performed as described in Example 1. The product SPECTRE® of company (Adama) containing the active ingredient chlorfenapyr belonging to IRAC Group 13 was tested. Assessment of the infection area was 23 hours after inoculation. Experiment was performed in 5-fold.

[1] = natamycin-insecticide 0:0.01 ppm, Table 16
[2] = natamycin-insecticide 0:0.04 ppm, Table 16
[3] = natamycin-insecticide 0:0.004 ppm, 5 days after inoculation, Table 18B
[4] = natamycin-insecticide 0:0.01 ppm, 5 days after inoculation, Table 18A
[5] = natamycin-insecticide 0:0.04 ppm, 5 days after inoculation, Table 18A
[6] = natamycin-insecticide 0:1 ppm, 5 days after inoculation, Table 18A
[7] = natamycin-insecticide 0-0.05 ppm
[8] = natamycin-insecticide 0-0.1 ppm
[9] = natamycin-insecticide 0-0.2 ppm
[10] = natamycin-insecticide 0-0.5 ppm
[11] = natamycin-insecticide 0-0.15 ppm
[12] = natamycin-insecticide 0-0.6 ppm
[13] = natamycin-insecticide 0:0.01 ppm, Table 15
[14] = natamycin-insecticide 0:0.04 ppm, Table 15
[15] = natamycin-insecticide 0:1 ppm, Table 15
[16] = natamycin-insecticide 0:0.004 ppm, 3 days after inoculation, Table 14B
[17] = natamycin-insecticide 0:0.01 ppm, 3 days after inoculation, Table 14A
[18] = natamycin-insecticide 0:0.04 ppm, 3 days after inoculation, Table 14A
[19] = natamycin-insecticide 0:1 ppm, 3 days after inoculation, Table 14A

## O=[N+]([O-])NC1=NCCN1Cc1ccc(Cl)nc1 [imidacloprid, N-[1-[(6-chloropyridin-3-yl)methyl]-4,5-dihydroimidazol-2-yl]nitramide]
Colletotrichum spp.; [1]
  Avg infected area: 18.5 mm2
  Observed antifungal activity: 56.3%
Colletotrichum spp.; [2]
  Avg infected area: 23.3 mm2
  Observed antifungal activity: 44.7%
Colletotrichum spp.; natamycin-insecticide 0:1 ppm, Table 16
  Avg infected area: 27.9 mm2
Botrytis cinerea; [3]
  Avg infected area: 16.6 mm2
  Observed antifungal activity: 43.3%
Botrytis cinerea; [4]
  Avg infected area: 35.6 mm2
  Observed antifungal activity: 27.6%
Botrytis cinerea; [5]
  Avg infected area: 53.2 mm2
  Observed antifungal activity: −8.3%
Botrytis cinerea; [6]
  Avg infected area: 32.4 mm2
  Observed antifungal activity: 34.1%

## CCOC(=O)/C=C(C)/C=C/CC(C)CCCC(C)C (stereo not drawn) [hydroprene]
Fusarium culmorum; [7]
  Avg infected area: 934.7 mm2
  Observed antifungal activity: 6.4%
Fusarium culmorum; [8]
  Avg infected area: 1010.5 mm2
  Observed antifungal activity: −1.2%
Fusarium culmorum; [9]
  Avg infected area: 1014.3 mm2
  Observed antifungal activity: −1.6%
Fusarium culmorum; [10]
  Avg infected area: 1060.2 mm2
  Observed antifungal activity: −6.2%
Fusarium graminerum; [7]
  Avg infected area: 1124 mm2
  Observed antifungal activity: 1.0%
Fusarium graminerum; [8]
  Avg infected area: 1142.1 mm2
  Observed antifungal activity: −0.6%
Fusarium graminerum; [9]
  Avg infected area: 970.5 mm2
  Observed antifungal activity: 14.5%
Fusarium graminerum; [10]
  Avg infected area: 1055.1 mm2
  Observed antifungal activity: 7.1%
Sclerotinia sclerotiorum; [11]
  Avg infected area: 99.3 mm2
  Observed antifungal activity: 36.6%
Sclerotinia sclerotiorum; [12]
  Avg infected area: 103.1 mm2
  Observed antifungal activity: 34.2%
Sclerotinia sclerotiorum; natamycin-insecticide 0-3 ppm
  Avg infected area: 74.5 mm2
  Observed antifungal activity: 52.5%
Sclerotinia sclerotiorum; natamycin-insecticide 0-15 ppm
  Avg infected area: 89 mm2
  Observed antifungal activity: 43.2%

## CC1(C)[C@H](C(=O)O[C@H](C#N)c2cccc(Oc3ccccc3)c2)[C@@H]1C=C(Cl)Cl [alpha-cypermethrin, [(S)-cyano-(3-phenoxyphenyl)methyl] (1R,3R)-3-(2,2-dichloroethenyl)-2,2-dimethylcyclopropane-1-carboxylate]
Colletotrichum spp.; [13]
  Avg infected area: 44.8 mm2
  Observed antifungal activity: −6.1%
Colletotrichum spp.; [14]
  Avg infected area: 22.5 mm2
  Observed antifungal activity: 46.7%
Colletotrichum spp.; [15]
  Avg infected area: 20.6 mm2
  Observed antifungal activity: 51.2%
Botrytis cinerea; [16]
  Avg infected area: 6.2 mm2
  Observed antifungal activity: 37.2%
Botrytis cinerea; [17]
  Avg infected area: 9.0 mm2
  Observed antifungal activity: 20.5%
Botrytis cinerea; [18]
  Avg infected area: 9.1 mm2
  Observed antifungal activity: 19.8%
Botrytis cinerea; [19]
  Avg infected area: 9.9 mm2
  Observed antifungal activity: 12.8%
